Experiments:
Assay type in all cases: in vivo
[1] = test system: ducksalad (Heteranthera limosa); test: Test B flooded paddy test; details: for Plant response rating, Flood, Ducksalad: 250 g ai/ha, flooded paddy test, visual rating on 0 to 100 scale (0 no effect, 100 complete control) after 13 to 15 days; for Plant response rating, Ducksalad: Flood (flooded paddy test), 13 to 15 days; for Ducksalad plant response rating: Flood, 31 g ai/ha, scale 0 to 100 (0 no effect, 100 complete control)
Outline: (§1)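 2-leaf seedlings; pots flooded 3 cm over soil at treatment; cpd dosed into floodwater, depth kept constant. Greenhouse 13–15 d. Visual rating vs untreated controls, 0 = no effect, 100 = complete control.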

[2] = test system: umbrella sedge (Cyperus difformis); test: Test B flooded paddy test; details: for Plant response rating, Flood, Sedge, Umbrella: 250 g ai/ha, flooded paddy test, visual rating on 0 to 100 scale (0 no effect, 100 complete control) after 13 to 15 days; for Plant response rating, Sedge, Umbrella: Flood (flooded paddy test), 13 to 15 days; for Sedge, Umbrella plant response rating: Flood, 31 g ai/ha, scale 0 to 100 (0 no effect, 100 complete control)
Outline: as §1

[3] = test system: rice (Oryza sativa); test: Test B flooded paddy test; details: for Plant response rating, Flood, Rice: 250 g ai/ha, flooded paddy test, visual rating on 0 to 100 scale (0 no effect, 100 complete control) after 13 to 15 days; for Plant response rating, Rice: Flood (flooded paddy test), 13 to 15 days; for Rice plant response rating: Flood, 31 g ai/ha, scale 0 to 100 (0 no effect, 100 complete control)
Outline: as §1

[4] = test system: barnyardgrass (Echinochloa crus-galli); test: Test B flooded paddy test; details: for Plant response rating, Flood, Barnyardgrass: 250 g ai/ha, flooded paddy test, visual rating on 0 to 100 scale (0 no effect, 100 complete control) after 13 to 15 days; for Plant response rating, Barnyardgrass: Flood (flooded paddy test), 13 to 15 days; for Barnyardgrass plant response rating: Flood, 31 g ai/ha, scale 0 to 100 (0 no effect, 100 complete control)
Outline: as §1

[5] = test system: morningglory (Ipomoea spp.); test: Test A pre-/postemergence plant response
Outline: (§2)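 Seeds planted in loam soil/sand blend; test chemicals in non-phytotoxic solvent mixture with surfactant applied as directed soil spray preemergence and, concurrently, postemergence to plants 2–10 cm tall at one- to two-leaf stage. Greenhouse ~10 days; visual injury vs untreated controls, 0 (no effect) to 100 (complete control).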

[6] = test system: giant foxtail (Setaria faberii); test: Test A pre-/postemergence plant response
Outline: as §2

[7] = test system: corn (Zea mays); test: Test A pre-/postemergence plant response
Outline: as §2

[8] = test system: wheat (Triticum aestivum); test: Test A pre-/postemergence plant response
Outline: as §2

[9] = test system: pigweed (Amaranthus retroflexus); test: Test A pre-/postemergence plant response
Outline: as §2

[10] = test system: velvetleaf (Abutilon theophrasti); test: Test A pre-/postemergence plant response
Outline: as §2

[11] = test system: barnyardgrass (Echinochloa crus-galli); test: Test A pre-/postemergence plant response
Outline: as §2

[12] = test system: large crabgrass (Digitaria sanguinalis); test: Test A pre-/postemergence plant response
Outline: as §2

[13] = 62 g ai/ha, scale of 0 to 100 where 0 is no effect and 100 is complete control
[14] = Postemergence, 125 g ai/ha, 0 to 100 scale where 0 is no effect and 100 is complete control
[15] = Postemergence, 500 g ai/ha, 0 to 100 scale, 0 = no effect, 100 = complete control, approx. ten days
[16] = Preemergence, 125 g ai/ha, 0 to 100 scale, 0 = no effect, 100 = complete control
[17] = Preemergence, 500 g ai/ha, visual injury, 0 to 100 scale (0 no effect, 100 complete control), approx. ten days
[18] = 125 g ai/ha, scale 0 to 100, 0 is no effect, 100 is complete control

SMILES: CCn1c(-c2cc(F)cc(F)c2)ncc(C(=O)C2=C(O)CCCC2=O)c1=O [Compound 122]
- Plant response rating, Flood, Ducksalad [1]: 0
- Plant response rating, Ducksalad [1, 13]: 0
- Plant response rating, Flood, Sedge, Umbrella [2]: 45
- Plant response rating, Sedge, Umbrella [2, 13]: 20
- Plant response rating, Flood, Rice [3]: 15
- Plant response rating, Rice [3, 13]: 0
- Plant response rating, Flood, Barnyardgrass [4]: 40
- Plant response rating, Barnyardgrass [4, 13]: 20
- Plant response rating, Morningglory [5, 14]: 90
- Plant response rating, Morningglory [5, 15]: 100
- Plant response rating, Morningglory [5, 16]: 40
- Plant response rating, Morningglory [5, 17]: 80
- Plant response rating, Foxtail, Giant [6, 14]: 70
- Plant response rating, Foxtail, Giant [6, 15]: 80
- Plant response rating, Foxtail, Giant [6, 16]: 30
- Plant response rating, Foxtail, Giant [6, 17]: 100
- Plant response rating, Corn [7, 14]: 0
- Plant response rating, Corn [7, 15]: 30
- Plant response rating, Corn [7, 16]: 0
- Plant response rating, Corn [7, 17]: 0
- Plant response rating, Wheat [8, 14]: 0
- Plant response rating, Wheat [8, 15]: 50
- Plant response rating, Wheat [8, 16]: 0
- Plant response rating, Wheat [8, 17]: 40
- Plant response rating, Pigweed [9, 14]: 100
- Plant response rating, Pigweed [9, 15]: 100
- Plant response rating, Pigweed [9, 16]: 100
- Plant response rating, Pigweed [9, 17]: 100
- Plant response rating, Velvetleaf [10, 14]: 100
- Plant response rating, Velvetleaf [10, 15]: 100
- Plant response rating, Velvetleaf [10, 16]: 100
- Plant response rating, Velvetleaf [10, 17]: 100
- Plant response rating, Barnyardgrass [11, 14]: 60
- Plant response rating, Barnyardgrass [11, 15]: 80
- Plant response rating, Barnyardgrass [11, 16]: 30
- Plant response rating, Barnyardgrass [11, 17]: 100
- Plant response rating, Crabgrass, Large [12, 14]: 70
- Plant response rating, Crabgrass, Large [12, 15]: 90
- Plant response rating, Crabgrass, Large [12, 16]: 90
- Plant response rating, Crabgrass, Large [12, 17]: 100

SMILES: COCCCn1c(-c2cccc(F)c2)ncc(C(=O)C2=C(O)CCCC2=O)c1=O [Compound 126]
- Plant response rating, Flood, Ducksalad [1]: 85
- Plant response rating, Ducksalad [1, 13]: 80
- Plant response rating, Ducksalad [1, 18]: 85
- Ducksalad plant response rating [1]: 75
- Plant response rating, Flood, Sedge, Umbrella [2]: 85
- Plant response rating, Sedge, Umbrella [2, 13]: 70
- Plant response rating, Sedge, Umbrella [2, 18]: 80
- Sedge, Umbrella plant response rating [2]: 50
- Plant response rating, Flood, Rice [3]: 15
- Plant response rating, Rice [3, 13]: 0
- Plant response rating, Rice [3, 18]: 0
- Rice plant response rating [3]: 0
- Plant response rating, Flood, Barnyardgrass [4]: 75
- Plant response rating, Barnyardgrass [4, 13]: 45
- Plant response rating, Barnyardgrass [4, 18]: 60
- Barnyardgrass plant response rating [4]: 20
- Plant response rating, Morningglory [5, 14]: 100
- Plant response rating, Morningglory [5, 15]: 100
- Plant response rating, Morningglory [5, 16]: 70
- Plant response rating, Morningglory [5, 17]: 90
- Plant response rating, Foxtail, Giant [6, 14]: 70
- Plant response rating, Foxtail, Giant [6, 15]: 80
- Plant response rating, Foxtail, Giant [6, 16]: 60
- Plant response rating, Foxtail, Giant [6, 17]: 90
- Plant response rating, Corn [7, 14]: 10
- Plant response rating, Corn [7, 15]: 60
- Plant response rating, Corn [7, 16]: 0
- Plant response rating, Corn [7, 17]: 20
- Plant response rating, Wheat [8, 14]: 0
- Plant response rating, Wheat [8, 15]: 20
- Plant response rating, Wheat [8, 16]: 0
- Plant response rating, Wheat [8, 17]: 20
- Plant response rating, Pigweed [9, 14]: 90
- Plant response rating, Pigweed [9, 15]: 100
- Plant response rating, Pigweed [9, 16]: 100
- Plant response rating, Pigweed [9, 17]: 100
- Plant response rating, Velvetleaf [10, 14]: 100
- Plant response rating, Velvetleaf [10, 15]: 100
- Plant response rating, Velvetleaf [10, 16]: 80
- Plant response rating, Velvetleaf [10, 17]: 100
- Plant response rating, Barnyardgrass [11, 14]: 80
- Plant response rating, Barnyardgrass [11, 15]: 90
- Plant response rating, Barnyardgrass [11, 16]: 70
- Plant response rating, Barnyardgrass [11, 17]: 100
- Plant response rating, Crabgrass, Large [12, 14]: 90
- Plant response rating, Crabgrass, Large [12, 15]: 90
- Plant response rating, Crabgrass, Large [12, 16]: 90
- Plant response rating, Crabgrass, Large [12, 17]: 100

SMILES: CCCn1c(-c2cccc(F)c2)ncc(C(=O)C2=C(O)CCCC2=O)c1=O [Compound 127]
- Plant response rating, Flood, Ducksalad [1]: 80
- Plant response rating, Ducksalad [1, 13]: 30
- Plant response rating, Ducksalad [1, 18]: 60
- Ducksalad plant response rating [1]: 0
- Plant response rating, Flood, Sedge, Umbrella [2]: 80
- Plant response rating, Sedge, Umbrella [2, 13]: 20
- Plant response rating, Sedge, Umbrella [2, 18]: 60
- Sedge, Umbrella plant response rating [2]: 0
- Plant response rating, Flood, Rice [3]: 35
- Plant response rating, Rice [3, 13]: 15
- Plant response rating, Rice [3, 18]: 25
- Rice plant response rating [3]: 0
- Plant response rating, Flood, Barnyardgrass [4]: 75
- Plant response rating, Barnyardgrass [4, 13]: 40
- Plant response rating, Barnyardgrass [4, 18]: 65
- Barnyardgrass plant response rating [4]: 0
- Plant response rating, Morningglory [5, 14]: 90
- Plant response rating, Morningglory [5, 15]: 100
- Plant response rating, Morningglory [5, 16]: 10
- Plant response rating, Morningglory [5, 17]: 80
- Plant response rating, Foxtail, Giant [6, 14]: 70
- Plant response rating, Foxtail, Giant [6, 15]: 80
- Plant response rating, Foxtail, Giant [6, 16]: 50
- Plant response rating, Foxtail, Giant [6, 17]: 90
- Plant response rating, Corn [7, 14]: 20
- Plant response rating, Corn [7, 15]: 20
- Plant response rating, Corn [7, 16]: 0
- Plant response rating, Corn [7, 17]: 0
- Plant response rating, Wheat [8, 14]: 0
- Plant response rating, Wheat [8, 15]: 0
- Plant response rating, Wheat [8, 16]: 0
- Plant response rating, Wheat [8, 17]: 0
- Plant response rating, Pigweed [9, 14]: 90
- Plant response rating, Pigweed [9, 15]: 100
- Plant response rating, Pigweed [9, 16]: 100
- Plant response rating, Pigweed [9, 17]: 100
- Plant response rating, Velvetleaf [10, 14]: 100
- Plant response rating, Velvetleaf [10, 15]: 100
- Plant response rating, Velvetleaf [10, 16]: 70
- Plant response rating, Velvetleaf [10, 17]: 100
- Plant response rating, Barnyardgrass [11, 14]: 80
- Plant response rating, Barnyardgrass [11, 15]: 90
- Plant response rating, Barnyardgrass [11, 16]: 40
- Plant response rating, Barnyardgrass [11, 17]: 100
- Plant response rating, Crabgrass, Large [12, 14]: 80
- Plant response rating, Crabgrass, Large [12, 15]: 90
- Plant response rating, Crabgrass, Large [12, 16]: 90
- Plant response rating, Crabgrass, Large [12, 17]: 100

— patent publication US8952024B2, “Herbicidal pyrimidone derivatives” (E I du Pont de Nemours and Company, priority 2009, dated 2015)
